Each structure is given as a SMILES string.

The target in assay [1] is T1, HDAC1 (Homo sapiens, UniProt Q13547).
T1 construct: FLAG; His; purchased BPS Bioscience
In words: HDAC1 fluorimetric enzyme inhibition assay (BPS Bioscience kit). Particulars: for Percentage HDAC1 activity: activity relative to control with no added inhibitor. Type of assay: biochemical. As to the method:
(§1) These isoforms were chosen as they provide contrasting binding topographies, and HDAC6 in particular is closely linked with cancer metastasis (Figure 2).
(§2) 5. Enzyme Inhibition Assay
(§3) HDAC enzyme inhibition assays were carried out for as stated using commercially available assay kits (BPS Bioscience ) and undertaken in a 96 well plate. All measurements were carried out in triplicate and standard deviation errors are included in the plots. Human recombinant enzymes HDAC1 FLAG-tag His-tag and HDAC6 GST-tag were used. Potential inhibitors were dosed at the required concentration […]
(§4) NaCl, 2.7 mM KCl, 1 mM MgCl 2). A master mixture was made using assay buffer, acetylated substrate specific to HDAC enzyme (200 µM) and BSA (1 mg/mL) in a ratio of buffer:substrate:BSA (6:1:1) and 40 µL added to each well plate. Buffer (10 µL) was added to all blank wells and inhibitor (5 µL) was added to all potential inhibitor wells. HDAC enzymes were diluted based on their stated activity and 5 µL was added to all wells except blanks and the plate incubated at 37 °C for 30 min. Developer was added and the mixture incubated at room temperature for a further 15 min. Fluorescence was measured […]
(§5) Percentage HDAC activity is […]
(§6) determined by quantification of fluorescence relative to control, with no added inhibitor.
(§7) IC 50 values are calculated using least squares regression fitting to equation S2, where Y = calculated HDAC activity at given concentration, X = concentration of inhibitor, a = gradient scaling factor and SP = saturation point (i.e. 100% activity). Errors calculated using the formula for standard […]
(§8) Y = ୣ୶୮ (௔×(௑ିூ ఱబ)) × SP (S2)
(§9) All assays carried out in […]

Assay [2] has as its target T2, HDAC6 (Homo sapiens, UniProt Q9UBN7).
T2 construct: GST; purchased BPS Bioscience
T2 sequence (Q9UBN7 1-1215): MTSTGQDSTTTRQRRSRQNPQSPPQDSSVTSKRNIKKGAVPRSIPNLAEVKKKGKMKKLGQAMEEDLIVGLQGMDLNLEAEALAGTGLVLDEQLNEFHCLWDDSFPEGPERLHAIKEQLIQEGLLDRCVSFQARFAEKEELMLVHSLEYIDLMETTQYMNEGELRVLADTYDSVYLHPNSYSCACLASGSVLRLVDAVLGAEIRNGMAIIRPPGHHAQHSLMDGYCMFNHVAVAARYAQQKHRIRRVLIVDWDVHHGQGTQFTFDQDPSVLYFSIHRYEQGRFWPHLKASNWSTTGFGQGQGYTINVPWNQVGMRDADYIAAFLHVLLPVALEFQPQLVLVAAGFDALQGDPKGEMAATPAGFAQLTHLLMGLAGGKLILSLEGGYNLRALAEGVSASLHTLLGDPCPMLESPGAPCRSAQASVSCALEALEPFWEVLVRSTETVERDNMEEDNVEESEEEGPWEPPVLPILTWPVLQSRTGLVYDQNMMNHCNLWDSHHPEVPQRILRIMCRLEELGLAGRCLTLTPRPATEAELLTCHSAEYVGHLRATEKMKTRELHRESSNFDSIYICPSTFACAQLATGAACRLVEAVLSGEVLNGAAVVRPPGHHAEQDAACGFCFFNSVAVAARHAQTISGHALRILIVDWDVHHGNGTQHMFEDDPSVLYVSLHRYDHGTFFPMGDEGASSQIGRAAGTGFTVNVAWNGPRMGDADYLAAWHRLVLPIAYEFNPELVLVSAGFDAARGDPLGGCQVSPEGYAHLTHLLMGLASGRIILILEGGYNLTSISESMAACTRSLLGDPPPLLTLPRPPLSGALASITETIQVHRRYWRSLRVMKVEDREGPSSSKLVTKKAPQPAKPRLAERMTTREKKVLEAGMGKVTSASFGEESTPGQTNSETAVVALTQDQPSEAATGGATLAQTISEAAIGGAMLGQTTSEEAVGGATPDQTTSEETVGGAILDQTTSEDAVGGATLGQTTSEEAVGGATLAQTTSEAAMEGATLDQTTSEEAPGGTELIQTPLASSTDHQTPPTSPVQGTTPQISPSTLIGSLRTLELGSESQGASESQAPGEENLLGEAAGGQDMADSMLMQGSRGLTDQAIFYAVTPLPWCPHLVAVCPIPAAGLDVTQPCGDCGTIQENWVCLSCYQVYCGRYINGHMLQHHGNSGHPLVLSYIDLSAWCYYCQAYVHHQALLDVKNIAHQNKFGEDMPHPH
Briefly: HDAC6 fluorimetric enzyme inhibition assay (BPS Bioscience kit). Type of assay: biochemical. Particulars: for Percentage HDAC6 activity: activity relative to control with no added inhibitor. As to the method:
as §1, §2, §3, §4, §5, §6, §7, §8, §9

Assay [3] relates to MCF7 human breast adenocarcinoma cell line. Briefly: Cell viability assay (ChemoMetec Via1-Cassette). Type of assay: cell-based. Particulars: MCF7, 96 h, triplicate. As to the method: viable cells. The experiments were carried out in triplicate.

T1 sequence (Q13547 whole entry): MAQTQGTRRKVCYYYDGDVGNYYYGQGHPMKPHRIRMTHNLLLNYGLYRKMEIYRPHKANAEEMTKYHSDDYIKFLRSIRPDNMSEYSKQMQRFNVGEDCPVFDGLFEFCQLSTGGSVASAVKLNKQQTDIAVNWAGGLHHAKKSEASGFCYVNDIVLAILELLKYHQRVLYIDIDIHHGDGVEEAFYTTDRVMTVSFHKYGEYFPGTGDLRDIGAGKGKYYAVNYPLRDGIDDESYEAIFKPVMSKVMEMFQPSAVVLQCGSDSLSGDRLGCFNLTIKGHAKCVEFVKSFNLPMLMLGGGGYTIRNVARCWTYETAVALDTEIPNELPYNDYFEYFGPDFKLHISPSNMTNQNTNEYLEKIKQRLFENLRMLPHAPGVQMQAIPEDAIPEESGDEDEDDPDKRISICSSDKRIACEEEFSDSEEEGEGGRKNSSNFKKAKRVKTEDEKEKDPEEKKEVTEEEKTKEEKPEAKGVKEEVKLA

In the case of `O=C(CCCCCCC(=O)Nc1ccccc1)NO` [SAHA, suberanilohydroxamic acid, reference compound], the “Percentage HDAC1 activity” value is recorded as 70 ± 15% in assay [1] (0.1 uM inhibitor) and 12 ± 7% in assay [1] (1 uM inhibitor). For the same compound, the figures for the “Percentage HDAC6 activity” value in assay [2] (0.1 uM inhibitor) and in assay [2] (1 uM inhibitor) were 22 ± 1% and 4 ± 2%, respectively.
The IC50 is the concentration that gives 50% inhibition. As usually defined, the EC50 is the concentration needed to bring the measured effect to its halfway point. Take `O=C(CCCCCCC(=O)Nc1cc2cccnc2c2ncccc12)NO` [L^1]: the “Percentage HDAC1 activity” value is recorded as 44 ± 7% in assay [1] (0.1 uM inhibitor) and 6 ± 13% in assay [1] (1 uM inhibitor). For the same compound, the IC50 in assay [1] (human recombinant HDAC1 FLAG-tag His-tag, triplicate) was determined as 0.105 ± 0.015 µM; in assay [2] (human recombinant HDAC6 GST-tag, triplicate), 0.041 ± 0.002 µM. This compound displayed an EC50 in assay [3] of 3 ± 0.6 µM. Moreover, the results for the “Percentage HDAC6 activity” value in assay [2] (0.1 uM inhibitor) and in assay [2] (1 uM inhibitor) were 17 ± 3% and 1.5 ± 1%, respectively. Besides, the “Selectivity Factor” value in assay [2] (ratio of the IC50 values for HDAC1 and HDAC6) came out at 2.6.
